We go through 13 compounds from PubChem BioAssay (NCI).

What all share (test): NCI anticancer screen, dose series, 48 h
The test system of assay [1] is OVCAR-8 ovarian.
Assay [2] has as its system MDA-N.
Assay [3] has as its system K-562 leukemia.
The test system of assay [4] is NCI-H23 lung.
The test system of assay [5] is OVCAR-5 ovarian.
Assay [6] relates to EKVX NSCLC.
Assay [7] has as its system SF-295 CNS.
For assay [8], the system named is ACHN renal.
Assay [9] deals with IGROV1 ovarian.
For assay [10], the system named is NCI-H226 lung.

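Briefly, cells in 96-well plates were exposed to five compound concentrations for 48 h, and endpoints were estimated by linear interpolation. Definition used: TGI = concentration required for complete inhibition of growth.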

Regarding `CCOC(=O)/C=C(/C(=O)OCC)n1cc(C)c(=O)n(Cc2cn(CCCCOC(C)=O)nn2)c1=O`, the TGI in [1] was 25.8 µM; in [2], > 100 µM; in [3], > 100 µM; in assay [4], 31.9 µM; in assay [5] it was 41 µM; in assay [6], 22.7 µM. The TGI in assay [7] is > 100 µM; in assay [8], 16.7 µM; in assay [9], 29.6 µM; in [10], 37.1 µM.
Take `CCOC(=O)c1c(SC(=O)c2ccc(Cl)cc2)n(-c2ccccc2)c(=S)n(-c2ccccc2)c1=O`: the TGI in [1], in [2], in assay [3], in [4], in assay [5] and in [6] was > 100 µM each time. The TGI in assay [7], in [8], in assay [9] and in assay [10] was > 100 µM throughout.
For `COc1ccc(Cn2c(=O)c(OS(=O)(=O)C(F)(F)F)c(C)c3cc4ccccc4cc32)cc1`, the TGI in [1], in assay [2], in assay [3], in assay [4], in assay [5] and in [6] was > 100 µM in each case. Further, the TGI in assay [7], in [8], in [9] and in assay [10] was > 100 µM in each case.
As to `O=C(NNC(=O)c1ccc(Cl)cc1NC(=O)C12CC3CC(CC(C3)C1)C2)c1ccc(Cl)cc1`, the TGI in assay [1] is > 100 µM; in assay [2], 55.9 µM; in assay [3] it was > 100 µM; in [4], > 100 µM; in [5], 74.4 µM; in assay [6] it was 69.8 µM. Moreover, the TGI in [7] stood at 57 µM; in [8], 51.6 µM; in [9], 32.7 µM; in [10] it was 65.1 µM.
In the case of `O=C(O)c1c(CC(Cc2ccccc2)C(=O)O)ccc2c1CCC2` (stereo not given), the TGI in assay [1], in assay [2], in assay [3], in assay [4], in [5] and in [6] was > 100 µM in each case. Besides, the TGI in assay [7], in assay [8], in [9] and in assay [10] was > 100 µM in each case.
Regarding `CC1(C)CC(=O)C2=C(C1)NC(=S)C(C#N)C2c1ccccc1` (stereo not given), the TGI in assay [1], in [2], in assay [3], in [4], in assay [5] and in assay [6] was > 100 µM each time. Besides, the TGI in assay [7], in assay [8], in assay [9] and in assay [10] was > 100 µM each time.
Regarding `CN1CCC(O)(OC(=O)C(c2ccccc2)C2(O)CCCC2)CC1` (stereo not given), the TGI in [1], in [2], in assay [3], in assay [4], in [5] and in assay [6] was > 100 µM throughout. The TGI in assay [7], in assay [8], in assay [9] and in assay [10] was > 100 µM each time.
Take `O=C(CCC(NC(=O)OCc1ccccc1)C(=O)OCc1ccccc1)Nc1cccc(OCc2ccccc2)c1` (stereo not given): the TGI was 78.6 µM in assay [1]; > 100 µM in [2]; 52.2 µM in [3]; 57.1 µM in assay [4]; > 100 µM in assay [5]; > 100 µM in assay [6]. Moreover, the TGI in assay [7] was > 100 µM; in assay [8], > 100 µM; in assay [9], 71.1 µM; in assay [10], > 100 µM.
On to `C#CCn1c(I)cc2c(c1=O)COC(=O)[C@]2(O)CC`, for which the TGI in assay [1], in assay [2], in [3], in assay [4], in assay [5] and in assay [6] was > 100 µM each time. Further, the TGI in assay [7], in [8], in assay [9] and in assay [10] was > 100 µM in each case.
Turning to `CC(C)(C)c1cc(C(C)(C)C)c(SC2OC(CO)C(O)C(O)C2O)c(O)c1O` (stereo not given), the TGI in [1] is 27.7 µM; in [2] it was 15.8 µM; in assay [3], > 39.8 µM; in [4] it was 17.9 µM; in [5], 32.1 µM; in assay [6] it was > 53.3 µM. The TGI is 28.3 µM in [7], 22.8 µM in [8], 43.4 µM in assay [9] and 36.7 µM in assay [10].
Regarding `O=C(NNC(=O)c1ccncc1)C(=O)Nc1cc(Cl)c(Cl)cc1Cl`, the TGI in [1], in [2], in [3], in [4], in assay [5] and in assay [6] was > 100 µM each time. Further, the TGI in assay [7], in assay [8], in assay [9] and in assay [10] was > 100 µM throughout.
Consider `O=[N+]([O-])/C(Cl)=C(\NCCO)C(Cl)=C(Cl)Cl`, for which the TGI in assay [1] was > 92.5 µM; in assay [2] it was > 96.3 µM; in assay [3] it was 39.7 µM; in assay [4], > 100 µM; in [5] it was > 100 µM; in [6] it was > 100 µM. Besides, the TGI in assay [7], in [8], in [9] and in [10] was > 100 µM each time.
`Cc1c2oc(=O)c(C#N)cc2c2ccccn12`: the TGI in assay [1], in [2], in [3], in assay [4], in assay [5] and in assay [6] was > 100 µM in each case. Further, the TGI in assay [7] was 40.7 µM; in assay [8], > 100 µM; in assay [9], > 100 µM; in assay [10], > 100 µM.
